US20250042856A1, “CRYSTALLINE FORM OF (R)-2-(TERT-BUTYLAMINO)-1-(5-FLUOROPYRIDIN-3-YL)-ETHAN-1-OL HEMI-TARTRATE SALT FOR THE TREATMENT OF HYPERGLYCEMIA AND DIABETES 2” (ATROGI AB, priority 2021, published 2025)

Test: TGMS mass loss due to water after exposure to stress conditions
Type: physicochemical
Conditions: between 6° and 160° C., after 2 days at 40° C. and 75% RH

SMILES: CC(C)(C)NC[C@H](O)c1cncc(F)c1.O=C(O)C(=O)O [Comparative Salt Example 9]
- mass loss (TGMS): no significant mass loss
